Entries after “also recorded” stand apart in the source; their conditions may differ. Like-named read-outs stand apart in the source and are kept apart here.
Key:
scuPA-suPAR complex = scuPA-suPAR complex (Homo sapiens, UniProt P00749); assay: Clot lysis assay ([125I] fibrin clots); assay type: biochemical; conditions: 30 minutes after initiation of clot lysis (FIG. 3)
Description: Fibrin clots were formed by supplementing plasma with [^125I] fibrinogen. Clotting was initiated by adding thrombin and calcium to the plasma mixture. Clots were washed to remove any free radioactivity, plasminogen and the activator to be tested were added to the clot and the release of [^125I] fibrin degradation products was monitored. The data presented in this figure is at 30 minutes after initiation of clot lysis. scuPA-suPAR: dose response with Å6 on clot lysis by scuPA-suPAR complex; scuPA: dose response on clot lysis by scuPA alone; scuPA/suPAR+scrambled pep: dose response with a scrambled version of Å6 (Ac-[sequence]-Am) (SEQ ID NO: 10).

Mat B-III tumors [1] = assay: Rat syngeneic Mat B-III breast cancer model; assay type: in vivo
Description: The effects of the compounds are tested on tumor progression in a rat syngeneic model of breast cancer (Xing and Rabbani, 1996). Mat BIII rat breast tumor cells (1×10^6 cells in PBS, 0.1 mL per rat) are inoculated into the mammary fat pads of female Fisher rats. The test compound is dissolved in PBS (200 mM stock), sterile filtered and dispensed in vivo at a dose of up to about 100 mg/kg/day) using a 14-day Alza osmotic mini-pump implanted intraperitoneally at the time of inoculation. Control animals receive vehicle (PBS) alone. Animals are euthanized at day 14 and examined for metastasis in the spleen, lungs, liver, kidney and lymph nodes. In addition, the primary tumors are excised, quantitated, and prepared for immunohistochemistry.
The rat syngeneic breast cancer system (Xing and Rabbani, 1996) employs Mat BIIIrat breast cancer cells. When Mat B-III cells (1×10^6 cells) are inoculated into the mammary fat pad of female Fisher rats, they form large tumors which metastasize to regional lymph nodes (LNs) and other distal sites within 14-20 days.
Å6 was initially delivered prophylactically (infusion starting on the day of tumor inoculation) using an Alzet mini-pump that delivered 75 mg/kg/day. […] Metastasis was quantitated by counting the number of macroscopic foci without regard for their size.
Estrogen receptor-positive Mat B-III tumors were used to test combination treatment with Å6 (75 mg/kg/day) and TAM (3 mg/kg/day). In contrast to previous studies, the Mat B-III tumors (inoculated in the mammary fat pad) were staged to 40-50 mm^3 prior to the initiation of treatment. Treatment was continued for 8 days during which time primary tumor growth was measured using calipers (FIG. 14).

[2] = system: human prostate cancer line PC-3; assay: Matrigel invasion assay, PC-3 cells; assay type: cell-based; conditions: 5 μM (FIG. 1, FIG. 2)
Description: Several peptides were tested for anti-invasive capacity in a Matrigel® invasion assay system as indicated above (Kleinman et al., supra; Parish et al., supra). Several invasive human tumor lines (PC-3, MDA-MB-231) and non-human tumors (3LL, Mat B-III) were examined. The rat breast cancer line Mat B III and the human prostate cancer line PC-3 were initially used.
Tumor cells (5×10^5/mL, in a volume of 200 μL) in serum-free RPMI 1640 medium were added to a disposable transwell invasion chamber coated with Matrigel® (Becton Dickinson, Lincoln Park, N.J.). The invasion chambers were placed in 24-well tissue culture plates filled with serum-free RPMI-1640 and the plates were placed in an atmosphere of 5% CO2 in humidified air at 37° C. for 48-72 hours. The chambers were then removed, inverted, and the cells which had invaded (and now appeared on the bottom face of the invasion chamber) were fixed and stained using Diff-Quick® (Scientific Products). Cells were counted in 10 different fields on each filter and an average obtained.

Mat B-III tumors [3] = assay: Rat syngeneic Mat B-III breast cancer model; assay type: in vivo; conditions: 75 mg/kg/day IP b.i.d.
3LL cells = assay: Tumor angiogenesis (microvessel density) in 3LL model; assay type: in vivo, Mice; conditions: 100-250 mg/kg/day; compared to controls
Description: Angiogenesis is measured by determining microvessel density using immunostaining for CD31 (also known as platelet-endothelial cell adhesion molecule or PECAM). Results are reported as the average microvessel density of 5 fields each from 5 different sections (Penfold et al., 1996). Typically, the whole tumor is excised, sectioned and the sections examined histologically for microvessel density using appropriate stains or labels for other markers.
Angiogenesis induced by tumor growth and metastasis in vivo is examined in the models systems described above. Mice injected with 3LL cells are treated either with peptide or with vehicle and are sacrificed at various time points. Angiogenesis is assessed by determining microvessel density (MVD) using an antibody specific for microvascular endothelium or other markers of growing blood vessels, such as PECAM (CD31). Such an antibody is employed in conventional immunohistological methods to immunostain tissue sections as described by Penfold et al., supra. A large number of such antibodies is commercially available, for example the JC70 mAb. The MVD are correlated with other measures of tumor behavior including lymph node status and primary tumor size and rate of growth. In humans as reported by Penfold et al., supra, tumor MVD correlates with lymph node metastasis and is independent of tumor size, growth rate or type of histological differentiation.
The compounds are given i.v., i.p., or by osmotic minipump Typical dosages are 100-250 mg/kg/day. At various time points, two animals are sacrificed, and the tumor tissue and surrounding tissue is prepared for histological examination. Results are reported as the average microvessel density of 5 fields each from 5 different sections. The following seven compounds are tested: Ac-[…]-Am (SEQ ID NO:2), Ac-[…]-Am (SEQ ID NO: 6) (disubstitution variant at positions 3 and 4), Ac-[…]-Am (SEQ ID NO: 7) (disubstitution variant at positions 7 and 8), Ac-[…]-Am (SEQ ID NO: 8) (substitution variant at position 1), Ac-PSSPPEE-Am (SEQ ID NO: 4) (deletion variant, position 1 of SEQ ID NO:2 deleted), Ac-KPSSPPE-Am (SEQ ID NO: 5) (deletion variant, position 8 of SEQ ID NO:2 deleted), and Ac-[…]-Am (SEQ ID NO:1).

[4] = mouse, in vivo, iv, 37.5 mg/kg
Description: Protein binding studies are presently underway.
Pharmacokinetic analysis was carried out by Gilbert Lam, MicroConstants.

[5] = cynomolgus monkey, in vivo, iv, 37.5 mg/kg
Description: An LC/MS assay developed for the detection of Å6 in plasma has been validated for mouse and monkey plasma.

uPA = uPA (Homo sapiens, UniProt P00749); assay: uPA activity / activation of plasminogen; assay type: biochemical
[6] = Alzet mini-pump 75 mg/kg/day from the day of tumor inoculation
[7] = comparative analysis of related peptides

## Ac-KPSSPPEE-NH2 [Å6, CH3CO-Lys-Pro-Ser-Ser-Pro-Pro-Glu-Glu-NH2]
scuPA-suPAR complex
  scuPA-suPAR mediated clot lysis: inhibits
Mat B-III tumors [1]; [6]
  LN metastasis: inhibition
  tumor growth: inhibition
Mat B-III tumors [1]; [7]
  number of metastases in the spleen, lungs, liver, kidney and lymph nodes: significant reduction
  size of the primary tumor: significant reduction
Mat B-III tumors [1]; histological analysis, Å6-treated rats
  necrosis of the primary tumor periphery: 50-75%
Mat B-III tumors [1]; tumor sections
  decrease in Factor VIII-positive foci: 40-60%
Mat B-III tumors [1]; Å6-treated groups
  TUNEL assay for apoptosis of tumor cells: stained positive
[2]
  in vitro invasion of PC-3 cells in a Matrigel system: inhibited the invasion
other
  solubility: > 100 mg/mL
Mat B-III tumors [3]
  macroscopic metastasis (number of macroscopic foci): continued to be suppressed; also recorded: inhibited
  tumor growth (volume of primary tumor): inhibits
3LL cells
  number of microvessels in the region of the primary tumor: significant reduction
[4]
  clearance: 33.3 mL/min/kg
  half-life: 12 min
[5]
  clearance: 0.7 mL/min/kg
  half-life: 24 min
uPA
  effect on the activity of uPA directly: did not affect
  inhibition of the activation of plasminogen: no effect

From US8110543B2, “Anti-invasive and anti-angiogenic compositions” (Angstrom Pharmaceuticals, Inc., priority 1997, dated 2012)
